In brackets after ≈: the same amount, converted by molar mass.
What was measured:
Rattus norvegicus [1] = assay: Conc in ovary of female rat 0.75h after administration of dose; format: functional, organism-based; conditions: Female gonad
Rattus norvegicus [2] = assay: Conc in serum of male rat 1 hr after administration of dose; format: functional, organism-based
Rattus norvegicus [3] = assay: Conc in serum of female rat 3h after administration of dose; format: functional, organism-based
Rattus norvegicus [4] = assay: Conc in intestine of male rat 1.5h after administration of dose; format: functional, organism-based
Rattus norvegicus [5] = assay: Conc in kidney of male rat 24 hr after administration of dose; format: functional, organism-based
Rattus norvegicus [6] = assay: Conc in stomach of male rat 24 hr after administration of dose; format: functional, organism-based
Rattus norvegicus [7] = assay: Conc in testes of male rat 6 hr after administration of dose; format: functional, organism-based; conditions: Testis
Rattus norvegicus [8] = assay: Conc in serum of female rat 0.50 hr after administration of dose; format: functional, organism-based
Rattus norvegicus [9] = assay: Conc in testes of male rat 4 hr after administration of dose; format: functional, organism-based; conditions: Testis
Rattus norvegicus [10] = assay: Conc in kidney of male rat after 0.75h administration of dose; format: functional, organism-based
Rattus norvegicus [11] = assay: Conc in lung of male rat 1 hr after administration of dose; format: functional, organism-based
Rattus norvegicus [12] = assay: Conc in lung of male rat 0.50 hr after administration of dose; format: functional, organism-based
Rattus norvegicus [13] = assay: Conc in ovary of female rat 4 hr after administration of dose; format: functional, organism-based; conditions: Female gonad
Rattus norvegicus [14] = assay: Conc in lung of male rat 1.5h after administration of dose; format: functional, organism-based
Rattus norvegicus [15] = assay: Conc in testes of male rat 0.50 hr after administration of dose; format: functional, organism-based; conditions: Testis
Rattus norvegicus [16] = assay: Conc in stomach of male rat 10h after administration of dose; format: functional, organism-based
Rattus norvegicus [17] = assay: Conc in muscle of male rat 4 hr after administration of dose; format: functional, organism-based; conditions: Muscle tissue
Rattus norvegicus [18] = assay: Conc in muscle of male rat 1 hr after administration of dose; format: functional, organism-based; conditions: Muscle tissue
Rattus norvegicus [19] = assay: Conc in lung of male rat 2 hr after administration of dose; format: functional, organism-based
Rattus norvegicus [20] = assay: Conc in serum of male rat 1.5h after administration of dose; format: functional, organism-based
Rattus norvegicus [21] = assay: Conc in lung of male rat 6 hr after administration of dose; format: functional, organism-based
Rattus norvegicus [22] = assay: Conc in intestine of male rat 10h after administration of dose; format: functional, organism-based
Rattus norvegicus [23] = assay: Conc in stomach of male rat 2 hr after administration of dose; format: functional, organism-based
Rattus norvegicus [24] = assay: Conc in muscle of male rat 2 hr after administration of dose; format: functional, organism-based; conditions: Muscle tissue
Klebsiella aerogenes = assay: Inhibition of growth of Enterobacter aerogenes (2200/186) measured as MIC(compound/MIC Trimethoprim; format: functional
Rattus norvegicus [25] = assay: Conc in brain of male rat 0.75h after administration of dose; format: functional, organism-based
Rattus norvegicus [26] = assay: Conc in serum of female rat 1 hr after administration of dose; format: functional, organism-based
Rattus norvegicus [27] = assay: Conc in intestine of male rat 1 hr after administration of dose; format: functional, organism-based
Neisseria gonorrhoeae = assay: Inhibition of growth of Neisseria gonorrhoeae; format: functional
Rattus norvegicus [28] = assay: Conc in serum of male rat 4 hr after administration of dose; format: functional, organism-based
Rattus norvegicus [29] = assay: Conc in testes of male rat 24 hr after administration of dose; format: functional, organism-based; conditions: Testis
Rattus norvegicus [30] = assay: Conc in intestine of male rat 0.25 hr after administration of dose; format: functional, organism-based
Escherichia coli = assay: Inhibition of growth of Escherichia coli (CN314) measured as MIC compound/MIC Trimethoprim; format: functional
Dihydrofolate reductase = biological target: T1, Dihydrofolate reductase (Rattus norvegicus, UniProt Q920D2); assay: Inhibition of Rat liver Dihydrofolate reductase(DHFR); conditions: read-out: I50
T1 sequence (Q920D2 whole entry): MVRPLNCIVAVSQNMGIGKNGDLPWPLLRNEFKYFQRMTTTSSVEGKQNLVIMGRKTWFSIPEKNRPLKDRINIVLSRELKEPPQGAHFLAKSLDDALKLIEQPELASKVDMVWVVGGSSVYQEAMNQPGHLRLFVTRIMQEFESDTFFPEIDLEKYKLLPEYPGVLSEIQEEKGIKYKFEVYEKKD

Rattus norvegicus [31] = assay: Conc in ovary of female rat 2 hr after administration of dose; format: functional, organism-based; conditions: Female gonad
Rattus norvegicus [32] = assay: Conc in brain of male rat 0.50 hr after administration of dose; format: functional, organism-based
Klebsiella pneumoniae = assay: Inhibition of growth of Klebsiella pneumoniae (CN3632) measured as MIC compound/MIC Trimethoprim; format: functional
Rattus norvegicus [33] = assay: Conc in ovary of female rat 1 hr after administration of dose; format: functional, organism-based; conditions: Female gonad
Rattus norvegicus [34] = assay: Conc in ovary of female rat 1.5h after administration of dose; format: functional, organism-based; conditions: Female gonad
Rattus norvegicus [35] = assay: Conc in kidney of male rat 1.5h after administration of dose; format: functional, organism-based
Rattus norvegicus [36] = assay: Conc in lung of male rat 0.75h after administration of dose; format: functional, organism-based
Rattus norvegicus [37] = assay: Conc in serum of male rat 2 hr after administration of dose; format: functional, organism-based
Rattus norvegicus [38] = assay: Conc in testes of male rat 1.5h after administration of dose; format: functional, organism-based; conditions: Testis
Rattus norvegicus [39] = assay: Conc in serum of female rat 24 hr after administration of dose; format: functional, organism-based
Rattus norvegicus [40] = assay: Conc in kidney of male rat 2 hr after administration of dose; format: functional, organism-based
Rattus norvegicus [41] = assay: Conc in muscle of male rat 0.25 hr after administration of dose; format: functional, organism-based; conditions: Muscle tissue
Rattus norvegicus [42] = assay: Conc in brain of male rat 6 hr after administration of dose; format: functional, organism-based
Rattus norvegicus [43] = assay: Conc in serum of female rat 0.25 hr after administration of dose; format: functional, organism-based
Rattus norvegicus [44] = assay: Conc in serum of male rat 0.75h after administration of dose; format: functional, organism-based
Rattus norvegicus [45] = assay: Conc in serum of female rat 2 hr after administration of dose; format: functional, organism-based
Rattus norvegicus [46] = assay: Conc in liver of male rat after 0.75h administration of dose; format: functional, organism-based
Rattus norvegicus [47] = assay: Conc in serum of female rat 10h after administration of dose; format: functional, organism-based
Rattus norvegicus [48] = assay: Conc in testes of male rat 0.25 hr after administration of dose; format: functional, organism-based; conditions: Testis
Rattus norvegicus [49] = assay: Conc in liver of male rat after 0.25 hr administration of dose; format: functional, organism-based
Rattus norvegicus [50] = assay: Conc in ovary of female rat 3h after administration of dose; format: functional, organism-based; conditions: Female gonad
Rattus norvegicus [51] = assay: Conc in liver of male rat 6 hr after administration of dose; format: functional, organism-based
Rattus norvegicus [52] = assay: Conc in stomach of male rat 0.25 hr after administration of dose; format: functional, organism-based
Rattus norvegicus [53] = assay: Conc in stomach of male rat 1 hr after administration of dose; format: functional, organism-based
Rattus norvegicus [54] = assay: Conc in muscle of male rat 3h after administration of dose; format: functional, organism-based; conditions: Muscle tissue
Rattus norvegicus [55] = assay: Conc in serum of male rat 0.50 hr after administration of dose; format: functional, organism-based
Rattus norvegicus [56] = assay: Conc in kidney of male rat 6 hr after administration of dose; format: functional, organism-based
Rattus norvegicus [57] = assay: Conc in stomach of male rat 1.5h after administration of dose; format: functional, organism-based
Rattus norvegicus [58] = assay: Conc in brain of male rat 2 hr after administration of dose; format: functional, organism-based
Rattus norvegicus [59] = assay: Conc in brain of male rat 1 hr after administration of dose; format: functional, organism-based
Rattus norvegicus [60] = assay: Conc in kidney of male rat 4 hr after administration of dose; format: functional, organism-based
Rattus norvegicus [61] = assay: Conc in kidney of male rat 3h after administration of dose; format: functional, organism-based
Rattus norvegicus [62] = assay: Conc in intestine of male rat 6 hr after administration of dose; format: functional, organism-based
Rattus norvegicus [63] = assay: Conc in liver of male rat 1.5h after administration of dose; format: functional, organism-based
Rattus norvegicus [64] = assay: Conc in kidney of male rat 10h after administration of dose; format: functional, organism-based
Rattus norvegicus [65] = assay: Conc in intestine of male rat 0.75h after administration of dose; format: functional, organism-based

Structure (SMILES): CC(C)c1cc(Cc2cnc(N)nc2N)cc(C(C)C)c1O
- Concentration (Rattus norvegicus [1]): 4.48 µg/g
- Concentration (Rattus norvegicus [2]): 0.92 µg/g
- Concentration (Rattus norvegicus [3]): 0.61 µg/g
- Concentration (Rattus norvegicus [4]): 14.9 µg/g
- Concentration (Rattus norvegicus [5]): 0.5 µg/g
- Concentration (Rattus norvegicus [6]): 1.49 µg/g
- Concentration (Rattus norvegicus [7]): 0.41 µg/g
- Concentration (Rattus norvegicus [8]): 0.9 µg/g
- Concentration (Rattus norvegicus [9]): 1.01 µg/g
- Concentration (Rattus norvegicus [10]): 10.3 µg/g
- Concentration (Rattus norvegicus [11]): 11.9 µg/g
- Concentration (Rattus norvegicus [12]): 8.31 µg/g
- Concentration (Rattus norvegicus [13]): 1.55 µg/g
- Concentration (Rattus norvegicus [14]): 7.17 µg/g
- Concentration (Rattus norvegicus [15]): 1.07 µg/g
- Concentration (Rattus norvegicus [16]): 2 µg/g
- Concentration (Rattus norvegicus [17]): 0.67 µg/g
- Concentration (Rattus norvegicus [18]): 2.36 µg/g
- Concentration (Rattus norvegicus [19]): 4.98 µg/g
- Concentration (Rattus norvegicus [20]): 0.8 µg/g
- Concentration (Rattus norvegicus [21]): 0.52 µg/g
- Concentration (Rattus norvegicus [22]): 2.29 µg/g
- Concentration (Rattus norvegicus [23]): 46.1 µg/g
- Concentration (Rattus norvegicus [24]): 1.4 µg/g
- MIC ratio (Klebsiella aerogenes): 100
- Concentration (Rattus norvegicus [25]): 1.01 µg/g
- Concentration (Rattus norvegicus [26]): 1.09 µg/g
- Concentration (Rattus norvegicus [27]): 26 µg/g
- MIC (Neisseria gonorrhoeae): 9.2 µM (≈ 2.76 µg/mL)
- Concentration (Rattus norvegicus [28]): 0.42 µg/g
- Concentration (Rattus norvegicus [29]): 0.15 µg/g
- Concentration (Rattus norvegicus [30]): 158 µg/g
- MIC ratio (Escherichia coli): 300
- IC50 (Dihydrofolate reductase): 7.2 µM
- Concentration (Rattus norvegicus [31]): 1.93 µg/g
- Concentration (Rattus norvegicus [32]): 0.58 µg/g
- MIC ratio (Klebsiella pneumoniae): 300
- Concentration (Rattus norvegicus [33]): 3.33 µg/g
- Concentration (Rattus norvegicus [34]): 4.5 µg/g
- Concentration (Rattus norvegicus [35]): 6.74 µg/g
- Concentration (Rattus norvegicus [36]): 11.3 µg/g
- Concentration (Rattus norvegicus [37]): 0.49 µg/g
- Concentration (Rattus norvegicus [38]): 1.52 µg/g
- Concentration (Rattus norvegicus [39]): 0.14 µg/g
- Concentration (Rattus norvegicus [40]): 4.08 µg/g
- Concentration (Rattus norvegicus [41]): 0.44 µg/g
- Concentration (Rattus norvegicus [42]): 0.05 µg/g
- Concentration (Rattus norvegicus [43]): 0.49 µg/g
- Concentration (Rattus norvegicus [44]): 1.13 µg/g
- Concentration (Rattus norvegicus [45]): 0.68 µg/g
- Concentration (Rattus norvegicus [46]): 23.1 µg/g
- Concentration (Rattus norvegicus [47]): 0.16 µg/g
- Concentration (Rattus norvegicus [48]): 1.34 µg/g
- Concentration (Rattus norvegicus [49]): 17.4 µg/g
- Concentration (Rattus norvegicus [50]): 2.06 µg/g
- Concentration (Rattus norvegicus [51]): 5.14 µg/g
- Concentration (Rattus norvegicus [52]): 387 µg/g
- Concentration (Rattus norvegicus [53]): 47 µg/g
- Concentration (Rattus norvegicus [54]): 1.38 µg/g
- Concentration (Rattus norvegicus [55]): 1.12 µg/g
- Concentration (Rattus norvegicus [56]): 1.55 µg/g
- Concentration (Rattus norvegicus [57]): 97.1 µg/g
- Concentration (Rattus norvegicus [58]): 0.43 µg/g
- Concentration (Rattus norvegicus [59]): 0.91 µg/g
- Concentration (Rattus norvegicus [60]): 2.07 µg/g
- Concentration (Rattus norvegicus [61]): 4.11 µg/g
- Concentration (Rattus norvegicus [62]): 4.13 µg/g
- Concentration (Rattus norvegicus [63]): 13.5 µg/g
- Concentration (Rattus norvegicus [64]): 1.13 µg/g
- Concentration (Rattus norvegicus [65]): 112 µg/g

From ChEMBL document CHEMBL1124217, “2,4-Diamino-5-benzylpyrimidines and analogues as antibacterial agents. 9. Lipophilic trimethoprim analogues as antigonococcal agents” (J Med Chem, 1988)
